Molecular target: HCV RdRp (NS5B) (UniProt P26663)
Assay type: biochemical, hepatitis C virus

HCV RdRp (NS5B), sequence (P26663 whole entry, looked up): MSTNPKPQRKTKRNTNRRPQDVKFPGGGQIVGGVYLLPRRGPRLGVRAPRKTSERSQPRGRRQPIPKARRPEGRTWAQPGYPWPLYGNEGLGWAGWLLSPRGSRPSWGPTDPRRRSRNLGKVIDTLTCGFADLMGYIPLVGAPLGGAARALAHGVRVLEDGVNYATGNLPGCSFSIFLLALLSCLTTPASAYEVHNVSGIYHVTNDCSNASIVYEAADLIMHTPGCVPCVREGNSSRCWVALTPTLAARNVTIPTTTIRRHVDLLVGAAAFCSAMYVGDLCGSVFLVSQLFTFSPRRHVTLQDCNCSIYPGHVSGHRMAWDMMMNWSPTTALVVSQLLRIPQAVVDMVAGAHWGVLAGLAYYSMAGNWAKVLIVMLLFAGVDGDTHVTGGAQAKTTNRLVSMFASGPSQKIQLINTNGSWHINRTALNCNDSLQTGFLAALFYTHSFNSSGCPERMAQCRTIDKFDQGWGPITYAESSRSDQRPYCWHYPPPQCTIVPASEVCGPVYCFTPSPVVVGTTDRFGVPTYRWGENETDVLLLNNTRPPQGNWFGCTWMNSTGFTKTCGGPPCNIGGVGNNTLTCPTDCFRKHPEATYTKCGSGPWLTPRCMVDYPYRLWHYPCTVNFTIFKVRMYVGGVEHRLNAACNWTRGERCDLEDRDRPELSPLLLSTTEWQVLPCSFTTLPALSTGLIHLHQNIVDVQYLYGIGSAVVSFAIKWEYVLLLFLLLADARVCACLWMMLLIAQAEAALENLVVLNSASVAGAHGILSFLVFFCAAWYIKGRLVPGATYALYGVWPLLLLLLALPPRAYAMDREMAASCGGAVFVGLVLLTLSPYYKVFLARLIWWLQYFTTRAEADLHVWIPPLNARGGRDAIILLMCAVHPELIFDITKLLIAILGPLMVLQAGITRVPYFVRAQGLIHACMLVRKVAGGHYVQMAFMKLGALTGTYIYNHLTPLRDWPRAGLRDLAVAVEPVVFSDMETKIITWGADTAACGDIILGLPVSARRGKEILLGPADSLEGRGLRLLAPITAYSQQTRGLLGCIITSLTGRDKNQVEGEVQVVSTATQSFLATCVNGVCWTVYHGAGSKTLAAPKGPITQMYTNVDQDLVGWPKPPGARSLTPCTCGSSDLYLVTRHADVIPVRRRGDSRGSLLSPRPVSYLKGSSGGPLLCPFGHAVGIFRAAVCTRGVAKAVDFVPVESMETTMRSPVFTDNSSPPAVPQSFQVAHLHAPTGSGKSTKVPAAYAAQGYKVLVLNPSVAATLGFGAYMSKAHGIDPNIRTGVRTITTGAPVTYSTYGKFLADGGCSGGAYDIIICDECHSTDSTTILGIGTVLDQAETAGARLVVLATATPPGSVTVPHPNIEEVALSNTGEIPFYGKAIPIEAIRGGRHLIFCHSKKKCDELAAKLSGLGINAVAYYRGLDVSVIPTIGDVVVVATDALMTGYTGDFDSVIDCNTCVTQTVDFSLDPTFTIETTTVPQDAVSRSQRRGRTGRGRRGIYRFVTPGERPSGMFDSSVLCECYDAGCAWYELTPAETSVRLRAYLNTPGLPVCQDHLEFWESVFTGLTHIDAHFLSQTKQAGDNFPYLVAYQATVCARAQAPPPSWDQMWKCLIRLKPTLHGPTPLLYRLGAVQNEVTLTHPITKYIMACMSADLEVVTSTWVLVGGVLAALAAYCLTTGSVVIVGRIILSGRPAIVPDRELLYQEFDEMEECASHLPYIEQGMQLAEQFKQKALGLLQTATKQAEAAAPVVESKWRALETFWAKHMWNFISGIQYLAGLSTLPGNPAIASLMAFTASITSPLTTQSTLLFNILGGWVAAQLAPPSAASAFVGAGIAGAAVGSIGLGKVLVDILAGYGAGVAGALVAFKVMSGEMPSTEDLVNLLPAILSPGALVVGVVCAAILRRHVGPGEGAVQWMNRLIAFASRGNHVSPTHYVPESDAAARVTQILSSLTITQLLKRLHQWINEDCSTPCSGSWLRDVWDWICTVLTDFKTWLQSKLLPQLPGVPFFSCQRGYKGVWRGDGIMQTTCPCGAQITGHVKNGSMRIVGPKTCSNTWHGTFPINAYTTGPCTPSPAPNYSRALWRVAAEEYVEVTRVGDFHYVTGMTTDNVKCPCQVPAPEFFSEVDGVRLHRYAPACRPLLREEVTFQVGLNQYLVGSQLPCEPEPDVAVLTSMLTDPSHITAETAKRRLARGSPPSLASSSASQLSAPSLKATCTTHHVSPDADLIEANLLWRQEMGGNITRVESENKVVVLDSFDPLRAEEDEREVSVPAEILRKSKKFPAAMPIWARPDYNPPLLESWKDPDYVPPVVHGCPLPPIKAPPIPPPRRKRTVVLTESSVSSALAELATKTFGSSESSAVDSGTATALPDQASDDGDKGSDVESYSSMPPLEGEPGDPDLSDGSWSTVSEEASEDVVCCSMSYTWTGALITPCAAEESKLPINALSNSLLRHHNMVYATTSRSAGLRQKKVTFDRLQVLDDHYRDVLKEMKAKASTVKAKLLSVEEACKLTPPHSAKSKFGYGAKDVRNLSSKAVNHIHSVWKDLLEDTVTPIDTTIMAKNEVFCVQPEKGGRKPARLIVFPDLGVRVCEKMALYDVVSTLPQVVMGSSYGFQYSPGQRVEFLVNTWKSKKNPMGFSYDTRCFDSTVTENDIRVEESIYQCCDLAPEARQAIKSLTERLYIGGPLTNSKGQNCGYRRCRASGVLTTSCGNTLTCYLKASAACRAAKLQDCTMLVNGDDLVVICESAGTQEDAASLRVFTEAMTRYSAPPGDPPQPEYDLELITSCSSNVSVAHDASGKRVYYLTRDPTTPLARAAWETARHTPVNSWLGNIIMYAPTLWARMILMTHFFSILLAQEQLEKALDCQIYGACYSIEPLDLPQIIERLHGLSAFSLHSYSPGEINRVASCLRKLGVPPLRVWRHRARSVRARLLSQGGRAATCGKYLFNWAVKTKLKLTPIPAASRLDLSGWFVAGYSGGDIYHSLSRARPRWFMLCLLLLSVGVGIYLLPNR

Structure (SMILES)	IC50 [µM]
Cc1ccc(NC(=O)C(CCCCN)NC(=O)CNCc2cccc(C(F)(F)F)c2)cc1 [Compound 351, (S)-6-AMINO-2-[2-(3-TRIFLUOROMETHYL-BENZYLAMINO)-ACETYLAMINO]-HEXANOIC ACID P-TOLYLAMIDE]	> 50
NCCCC[C@H](NC(=O)OCC1c2ccccc2-c2ccccc21)C(=O)Nc1cccc(OCc2ccccc2)c1 [Compound 211, (S)-[5-AMINO-1-(3-BENZYLOXY-PHENYLCARBAMOYL)-PENTYL]-CARBAMIC ACID 9H-FLUOREN-9-YLMETHYL ESTER]	10 to 50
Cc1ccc(NC(=O)[C@H](CCCCN)NC(=O)Nc2ccc(OCc3ccc(F)cc3)cc2)cc1 [Compound 250, (S)-6-AMINO-2-{3-[4-(4-FLUORO-BENZYLOXY)-PHENYL]-UREIDO}-HEXANOIC ACID P-TOLYLAMIDE]	10 to 50
N[C@@H](Cc1c[nH]c2ccccc12)C(=O)NCCCC[C@H](NC(=O)OCC1c2ccccc2-c2ccccc21)C(=O)Nc1ccc(CN(C(=O)c2ccco2)C2CCCCC2)cc1 [Compound 35, (S)-[5-[2-(S)-AMINO-3-(1H-INDOL-3-YL)-PROPIONYLAMINO]-1-(4-{[CYCLOHEXYL-(FURAN-2-CARBONYL)-AMINO]-METHYL}-PHENYLCARBAMOYL)-PENTYL]-CARBAMIC ACID 9H-FLUOREN-9-YLMETHYL ESTER]	< 10
Cc1ccc(NC(=O)[C@H](CCCCN)NC(=O)OCC2c3ccccc3-c3ccccc32)cn1 [Compound 229, (S)-[5-AMINO-1-(6-METHYL-PYRIDIN-3-YLCARBAMOYL)-PENTYL]-CARBAMIC ACID 9H-FLUOREN-9-YLMETHYL ESTER]	> 50
NCCCC[C@H](NC(=O)OCC1c2ccccc2-c2ccccc21)C(=O)Nc1ccc(-c2ccccc2)cc1 [Compound 143, (S)-[5-AMINO-1-(BIPHENYL-4-YLCARBAMOYL)-PENTYL]-CARBAMIC ACID 9H-FLUOREN-9-YLMETHYL ESTER]	< 10
Cc1cc2cc(NC(=O)C(Cc3ccc(CN)cc3)NC(=O)Nc3ccc(-c4ccccc4)cc3)ccc2[nH]1 [Compound 234, (S)-3-(4-AMINOMETHYL-PHENYL)-2-(3-BIPHENYL-4-YL-UREIDO)—NR-(2-METHYL-1H-INDOL-5-YL)-PROPIONAMIDE]	10 to 50
Cc1ccc(NC(=O)C(CCCCN)NC(=O)c2ccc3c4c(cccc24)CC3)cc1 [Compound 67, (S)-ACENAPHTHENE-5-CARBOXYLIC ACID (5-AMINO-1-P-TOLYLCARBAMOYL-PENTYL)-AMIDE]	> 50
Cc1ccc(NC(=O)C2CN(C(=O)CN)CCN2C(=O)Nc2ccc(OCc3ccccc3)cc2)cc1 (racemic) [Compound 308, (±)-4-(2-AMINO-ACETYL)-PIPERAZINE-1,2-DICARBOXYLIC ACID 1-[(4-BENZYLOXY-PHENYL)-AMIDE]2-P-TOLYLAMIDE]	> 50
N[C@@H](CCNC(=O)OCC1c2ccccc2-c2ccccc21)C(=O)Nc1ccc(CN(C(=O)c2ccco2)C2CCCCC2)cc1 [Compound 14, (S)-[3-AMINO-3-(4-{[CYCLOHEXYL-(FURAN-2-CARBONYL)-AMINO]-METHYL}-PHENYLCARBAMOYL)-PROPYL]-CARBAMIC ACID 9H-FLUOREN-9-YLMETHYL ESTER]	10 to 50
CNCC(=O)NCCCC(NC(=O)OCC1c2ccccc2-c2ccccc21)C(=O)Nc1ccc(C)cc1 [Compound 223, (S)-[4-(2-METHYLAMINO-ACETYLAMINO)-1-P-TOLYLCARBAMOYL-BUTYL]-CARBAMIC ACID 9H-FLUOREN-9-YLMETHYL ESTER]	10 to 50
Cc1ccc(NC(=O)C(Cc2ccc(CN)cc2)NC(=O)OCC2c3ccccc3-c3ccccc32)cc1 [Compound 129, (S)-[2-(4-AMINOMETHYL-PHENYL)-1-P-TOLYLCARBAMOYL-ETHYL]-CARBAMIC ACID 9H-FLUOREN-9-YLMETHYL ESTER]	< 10
Cc1ccc(NC(=O)C(CCCCN)NC(=O)Nc2cc(C(F)(F)F)cc(C(F)(F)F)c2)cc1 [Compound 95, (S)-6-AMINO-2-[3-(3,5-BIS-TRIFLUOROMETHYL-PHENYL)-UREIDO]-HEXANOIC ACID P-TOLYLAMIDE]	10 to 50
Cc1cc2cc(NC(=O)[C@H](CCCNC(=O)CN)NC(=O)Nc3ccc(OCc4ccccc4)cc3)ccc2[nH]1 [Compound 296, (S)-5-(2-AMINO-ACETYLAMINO)-2-[3-(4-BENZYLOXY-PHENYL)-UREIDO]-PENTANOIC ACID (2-METHYL-1H-INDOL-5-YL)-AMIDE]	10 to 50
Cc1cc2cc(NC(=O)C(CCCCN)NC(=O)OCC3c4ccccc4-c4ccccc43)ccc2[nH]1 [Compound 38, (S)-[5-AMINO-1-(2-METHYL-1H-INDOL-5-YLCARBAMOYL)-PENTYL]-CARBAMIC ACID 9H-FLUOREN-9-YL METHYL ESTER]	10 to 50
Cc1ccc(NC(=O)C(CCCCN)NC(=O)OCC2c3ccccc3-c3ccccc32)cc1 [Compound 36, (R)-(5-AMINO-1-P-TOLYLCARBAMOYL-PENTYL)-CARBAMIC ACID 9H-FLUOREN-9-YLMETHYL ESTER]	10 to 50
Cc1ccc(NC(=O)[C@H](CCCCN)NC(=O)CNCCc2ccccc2)cc1 [Compound 334, (S)-6-AMINO-2-(2-PHENETHYLAMINO-ACETYLAMINO)-HEXANOIC ACID P-TOLYLAMIDE]	> 50
Cc1ccc(NC(=O)[C@H](CCCCO)NC(=O)Nc2ccc(OCc3ccccc3)cc2)cc1 [Compound 309, (S)-2-[3-(4-BENZYLOXY-PHENYL)-UREIDO]-6-HYDROXY-HEXANOIC ACID P-TOLYLAMIDE]	> 50
NCc1ccc(CNC(=O)[C@@H](NC(=O)Nc2ccc(OCc3ccccc3)cc2)c2ccccc2)cc1 [Compound 304, (S)-N-(4-AMINOMETHYL-BENZYL)-2-[3-(4-BENZYLOXY-PHENYL)-UREIDO]-2-PHENYL-ACETAMIDE]	10 to 50

Structure (SMILES)	IC50 [µM]
Cc1ccc(NC(=O)[C@H](CCCCN)NC(=O)NS(=O)(=O)c2ccccc2)cc1 [Compound 99, (S)-6-AMINO-2-[PHENYLSULFONAMIDE-UREIDO]-HEXANOIC ACID P-TOLYLAMIDE]	> 50
Cc1cccc(NC(=O)[C@H](CCCCN)NC(=O)OCC2c3ccccc3-c3ccccc32)c1 [Compound 47, (S)-(5-AMINO-1-M-TOLYLCARBAMOYL-PENTYL)-CARBAMIC ACID 9H-FLUOREN-9-YLMETHYL ESTER]	> 50
CCOC(=O)c1ccc(NC(=O)NC(CCCCN)C(=O)Nc2ccc(C)cc2)cc1 [Compound 245, (S)-4-[3-(5-AMINO-1-P-TOLYLCARBAMOYL-PENTYL)-UREIDO]-BENZOIC ACID ETHYL ESTER]	> 50
CC(C)(NC(=O)OCC1c2ccccc2-c2ccccc21)C(=O)Nc1ccc(C=CC(=O)O)cc1 [Compound 39, 3-{4-[2-((9H-FLUOREN-9-YLMETHOXYCARBONYL)AMINO)-2-METHYL-PROPIONYLAMINO]-PHENYL}-ACRYLIC ACID]	> 50
Cc1ccc(NC(=O)[C@H](CCCCN)NC(=O)NCc2ccc(Cl)cc2)cc1 [Compound 167, (S)-6-AMINO-2-[3-(4-CHLORO-BENZYL)-UREIDO]-HEXANOIC ACID P-TOLYLAMIDE]	> 50
NCCCCCCNC(=O)[C@@H](NC(=O)OCC1c2ccccc2-c2ccccc21)c1ccccc1 [Compound 313, (S)-[(6-AMINO-HEXYLCARBAMOYL)-PHENYL-METHYL]-CARBAMIC ACID 9H-FLUOREN-9-YLMETHYL ESTER]	10 to 50
Cc1ccc(NC(=O)C(Cc2ccc(CN)cc2)NC(=O)OCC2c3ccccc3-c3ccccc32)cc1 [Compound 175, (R)-[2-(4-AMINOMETHYL-PHENYL)-1-P-TOLYLCARBAMOYL-ETHYL]-CARBAMIC ACID 9H-FLUOREN-9-YLMETHYL ESTER]	< 10
Cc1ccc(NC(=O)[C@H](CCCCN)NC(=O)CNc2ccc3c(c2)CCC3)cc1 [Compound 369, (S)-6-AMINO-2-[2-(INDAN-5-YLAMINO)-ACETYLAMINO]-HEXANOIC ACID P-TOLYLAMIDE]	> 50
Cc1ccc(NC(=O)[C@H](CCCNC(=O)CN)NC(=O)Nc2ccc(OCc3ccccc3)cc2)cc1 [Compound 322, (S)-5-(2-AMINO-ACETYLAMINO)-2-[3-(4-BENZYLOXY-PHENYL)-UREIDO]-PENTANOIC ACID P-TOLYLAMIDE]	10 to 50
N[C@@H](CNC(=O)OCC1c2ccccc2-c2ccccc21)C(=O)Nc1ccc(CN(C(=O)c2ccco2)C2CCCCC2)cc1 [Compound 17, (S)-[2-AMINO-2-(4-{[CYCLOHEXYL-(FURAN-2-CARBONYL)-AMINO]-METHYL}-PHENYLCARBAMOYL)-ETHYL]-CARBAMIC ACID 9H-FLUOREN-9-YLMETHYL ESTER]	10 to 50
Cc1cc2cc(NC(=O)[C@H](Cc3ccc(CN)cc3)NC(=O)Nc3ccc4c(c3)Cc3ccccc3-4)ccc2[nH]1 [Compound 235, (S)-3-(4-AMINOMETHYL-PHENYL)-2-[3-(9H-FLUOREN-2-YL)-UREIDO]-N-(2-METHYL-1H-INDOL-5-YL)-PROPIONAMIDE]	< 10
Cc1ccc(NC(=O)C(CCCN)NC(=O)OCC2c3ccccc3-c3ccccc32)cc1 [Compound 101, (S)-(4-AMINO-1-P-TOLYLCARBAMOYL-BUTYL)-CARBAMIC ACID 9H-FLUOREN-9-YLMETHYL ESTER]	> 50
CNc1ccc(NC(=O)[C@H](CCCCN)NC(=O)OCC2c3ccccc3-c3ccccc32)cc1 [Compound 209, (S)-[5-AMINO-1-(4-METHYLAMINO-PHENYLCARBAMOYL)-PENTYL]-CARBAMIC ACID 9H-FLUOREN-9-YLMETHYL ESTER]	10 to 50
Cc1ccc(NC(=O)[C@H](CCCCN)NC(=O)Nc2ccc(OCc3ccccc3F)cc2)cc1 [Compound 248, (S)-6-AMINO-2-{3-[4-(2-FLUORO-BENZYLOXY)-PHENYL]-UREIDO}-HEXANOIC ACID P-TOLYLAMIDE]	10 to 50
Cc1ccc(NC(=O)C(CCC(=O)O)NC(=O)OCC2c3ccccc3-c3ccccc32)cc1 [Compound 373, (R)-4-(9H-FLUOREN-9-YLMETHOXYCARBONYLAMINO)-4-P-TOLYLCARBAMOYL-BUTYRIC ACID]	> 50
COc1ccc(NC(=O)N[C@@H](CCCCN)C(=O)Nc2ccc(C)cc2)cc1 [Compound 300, (S)-6-AMINO-2-[3-(4-METHOXY-PHENYL)-UREIDO]-HEXANOIC ACID P-TOLYLAMIDE]	> 50
NCC(=O)Nc1ccccc1NC(=O)CNC(=O)OCC1c2ccccc2-c2ccccc21 [Compound 311, {[2-(2-AMINO-ACETYLAMINO)-PHENYLCARBAMOYL]-METHYL}-CARBAMIC ACID 9H-FLUOREN-9-YLMETHYL ESTER]	> 50
COC(=O)c1cccc(COc2ccc(NC(=O)NC(CCCCN)C(=O)Nc3ccc(C)cc3)cc2)c1 [Compound 276, (S)-3-{4-[3-(5-AMINO-1-P-TOLYLCARBAMOYL-PENTYL)-UREIDO]-PHENOXYMETHYL}-BENZOIC ACID METHYL ESTER]	10 to 50

Reference: US20070021434A1, “NON-NUCLEOSIDE ANTI-HEPACIVIRUS AGENTS AND USES THEREOF” (Migenix Inc., priority 2005, published 2007)
